Measurements: patent USRE46792E1, “Oxazole compound and pharmaceutical composition” (Otsuka Pharmaceutical Co., Ltd., priority 2005, dated 2018)

Each molecule was assayed against human PDE4D3 (PDE4D) (Homo sapiens (Human), UniProt Q08499) (assay: Phosphodiesterase (PDE)4 inhibitory activity evaluation test ([3H]cAMP hydrolysis by PDE4D enzyme solution)). Settings: recombinant human PDE4D3 expressed in COS-7 cells; [3H]cAMP substrate; 10 min at 30° C.; 2% DMSO.
Format: biochemical
From the text: Phosphodiesterase (PDE)4 Inhibitory Activity Evaluation Test
(1) Large Scale Plasmid Preparation
Plasmid containing genes (HPDE4D) coding for human PDE4D3 cDNA (stored in Otsuka America Pharmaceutical, Inc., Maryland Research Laboratories) was transformed in E. coli, cultured on a large scale, and purified using an EndoFree™ Plasmid Maxi Kit (Qiagen).
(2) Abundant Expression and Purification of PDE4D
COS-7 cells derived from African green monkey kidneys were passage cultured in D-MEM media containing 100 units/ml penicillin, 100 μg/ml streptomycin, and 10% FBS. The cells were transfected with the plasmid prepared in (1) above using Lipofectamine™ 2000 (hereinafter referred to as “LF2000”, Invitrogen), following the manufacturer's protocol. The COS-7 cells were inoculated in a 10 cm culture dish on the previous day so as to be 90% confluent on the day of transfection. Culture dishes each containing a plasmid solution (solution A) in which 24 μg of plasmid was diluted in 1.5 ml Opti-MEM I Reduced Serum Medium (Invitrogen) and an LF2000 solution (solution B) in which 60 μl of LF2000 was diluted in 1.5 ml Opti-MEM I Reduced Serum Medium were separately allowed to stand for 5 minutes at room temperature. Solutions A and B were then mixed and the mixture was allowed to stand for 20 minutes at room temperature. The mixture was added to the cultured cells, and incubated at 37° C. (5% CO2) overnight. On the following day, the medium was replaced, and the mixture was further incubated overnight to harvest the cells in the following manner. The cells were washed with PBS (Sigma) once, and 10 ml of a Trypsin-EDTA solution (Sigma) was added to each culture dish. After the solution was distributed to each of the culture dishes, the cells were detached, and the dishes were allowed to stand for about 5 minutes at 37° C. The detached cells from the dishes were suspended in media, collected into centrifuge tubes, and centrifuged at 1200 rpm for 5 minutes at 4° C., and supernatants were removed. The cells were further washed with PBS, and stored at −80° C. KHEM buffer (100 mM Hepes, 50 mM KCl, 10 mM EGTA, 1.92 mM MgCl2, pH 7.4) containing 1 mM DTT, 1 μg/ml antipain, 1 μg/ml aprotinin, 1 μg/ml leupeptin, 1 μg/ml pepstatin A, 157 μg/ml benzamidine, and 120 μg/ml Pefabloc SC was added to the stored cells, and the contents were moved to a glass homogenizer to be homogenized on ice. The cell suspension was centrifuged at 1000 rpm for 5 minutes at 4° C., and the supernatant was further centrifuged at 14000 rpm for one hour. After centrifugation, the supernatant was dispensed into new tubes as PDE4D enzyme solutions, and stored in a deep freezer.
(3) Determination on Dilution Ratio of PDE4D Enzyme Solutions
The PDE4D enzyme solutions prepared in (2) above were dissolved in 20 mM Tris-HCl solution (pH 7.4) to give 10-, 25-, 50-, 100-, 200-, 400-, and 800-fold dilutions of the enzyme solutions. PDE4D activities were measured according to (4) below. The percentage of catalyzed cAMP to total cAMP was calculated, and such a dilution, in which the percentage was between 10% and 30%, was adopted in the inhibitory study below.
(4) Measurement of PDE4D Inhibitory Activity
Necessary amounts of test compounds were weighed, and 100% dimethylsulfoxide (DMSO) was added thereto to adjust the concentration to 10 mM. The solutions were stored in a freezer as stock solutions of each test compound. After being thawed when required, the solutions were diluted 20-fold with 100% DMSO to give a 500 μM concentration. Further, 10-fold serial dilutions were made with 100% DMSO to prepare test compounds of different concentrations. 2 μl of solutions containing one of each of the test compound were separately added into 1.2 ml tubes in which 23 μl of 20 mM Tris-HCl (pH 7.4) had been placed beforehand. […]

Sequence of human PDE4D3 (PDE4D) (Q08499 other isoform, or with tags, fused parts or gaps): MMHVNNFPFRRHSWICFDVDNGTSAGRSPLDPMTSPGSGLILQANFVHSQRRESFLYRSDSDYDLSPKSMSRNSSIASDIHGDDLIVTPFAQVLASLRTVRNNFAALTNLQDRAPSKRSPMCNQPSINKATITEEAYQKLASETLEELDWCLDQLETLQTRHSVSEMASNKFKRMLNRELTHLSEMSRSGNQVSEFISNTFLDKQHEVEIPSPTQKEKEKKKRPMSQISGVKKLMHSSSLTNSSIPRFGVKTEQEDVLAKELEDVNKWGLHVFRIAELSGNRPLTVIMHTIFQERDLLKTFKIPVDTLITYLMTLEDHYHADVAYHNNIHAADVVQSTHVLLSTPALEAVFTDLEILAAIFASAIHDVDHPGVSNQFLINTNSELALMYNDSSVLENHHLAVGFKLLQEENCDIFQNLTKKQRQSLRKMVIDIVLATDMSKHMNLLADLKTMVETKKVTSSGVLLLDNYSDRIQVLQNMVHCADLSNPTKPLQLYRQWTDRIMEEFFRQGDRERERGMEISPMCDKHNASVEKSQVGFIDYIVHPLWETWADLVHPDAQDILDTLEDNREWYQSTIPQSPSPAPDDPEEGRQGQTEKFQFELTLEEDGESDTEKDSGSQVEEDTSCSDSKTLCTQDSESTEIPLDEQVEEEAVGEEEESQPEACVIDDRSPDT

Molecule | IC50 [nM]
C=CCCOc1cc(-c2nc(CCC(=O)c3ccccc3OCCF)co2)ccc1OC [Example 276, 3-[2-(3-but-3-enyloxy-4-methoxyphenyl)oxazol-4-yl]-1-[2-(2-fluoroethoxy)phenyl]propan-1-one] | < 50
CCOc1ccccc1C(=O)CCc1coc(-c2ccc(OC)c(OCC3CC3)c2)n1 [Example 102, 3-[2-(3-cycropropylmethoxy-4-methoxyphenyl)oxazol-4-yl]-1-(2-ethoxyphenyl)propan-1-one] | < 50
CCOc1cc(-c2nc(CCC(=O)c3ccccc3OC(F)F)co2)ccc1OC [Example 274, 1-(2-difluoromethoxyphenyl)-3-[2-(3-ethoxy-4-methoxyphenyl)oxazol-4-yl]propan-1-one] | < 50
Cc1cccnc1C(=O)CCc1coc(-c2ccc(OC(F)F)c(OCC3CC3)c2)n1 [Example 328, 3-[2-(3-cyclopropylmethoxy-4-difluoromethoxyphenyl)oxazol-4-yl]-1-(3-methylpyridin-2-yl)propan-1-one] | < 50
CCOc1ccc(-c2nc(CCC(=O)c3ccccc3OCC(F)F)co2)cc1OCC [Example 290, 3-[2-(3,4-diethoxyphenyl)oxazol-4-yl]-1-[2-(2,2-difluoroethoxy)phenyl]propan-1-one] | < 50
CCOc1ccccc1C(=O)NCc1coc(-c2ccc(OC(F)F)c(OC(C)C)c2)n1 [Example 352, N-[2-(4-difluoromethoxy-3-isopropoxyphenyl)oxazol-4-ylmethyl]-2-ethoxybenzamide] | < 50
CCOc1cc(-c2nc(CCC(=O)c3ccccc3OCC)co2)ccc1OC [Example 103, 3-[2-(3-ethoxy-4-methoxyphenyl)oxazol-4-yl]-1-(2-ethoxyphenyl)propan-1-one] | < 50
Cc1cccnc1C(=O)NCc1coc(-c2ccc(OC(F)F)c(OC(C)C)c2)n1 [Example 341, N-[2-(4-difluoromethoxy-3-isopropoxyphenyl)oxazol-4-ylmethyl]-3-methylpicolinamide] | < 50
3-[2-(3-hydroxy-4-methoxyphenyl)oxazol-4-yl]-1-(2-methoxymethoxy phenyl)propan-1-one [Example 232] | < 50
COc1ccc(-c2nc(CCC(=O)c3ncccc3C)co2)cc1OCC(F)(F)F [Example 155, 3-{2-[4-methoxy-3-(2,2,2-trifluoroethoxy)phenyl]oxazol-4-yl}-1-(3-methylpyridin-2-yl)propan-1-one] | < 50
CCOc1cccnc1C(=O)CCc1coc(-c2ccc(OC)c(OCC3CC3)c2)n1 [Example 133, 3-[2-(3-cyclopropylmethoxy-4-methoxyphenyl)oxazol-4-yl]-1-(3-ethoxypyridin-2-yl)propan-1-one] | < 50
COc1ccc(-c2nc(CCC(=O)c3ncccc3C)co2)cc1OC(C)C [Example 139, 3-[2-(3-isopropoxy-4-methoxyphenyl)oxazol-4-yl]-1-(3-methylpyridin-2-yl)propan-1-one] | < 50
C=CCCOc1cc(-c2nc(CCC(=O)c3ccccc3OCC)co2)ccc1OC(F)F [Example 337, 3-[2-(3-but-3-enyloxy-4-difluoromethoxyphenyl)oxazol-4-yl]-1-(2-ethoxyphenyl)propan-1-one] | < 50
COc1ccc(-c2nc(CCC(=O)c3ccccc3OCC(F)F)co2)cc1OCC(C)C [Example 285, 1-[2-(2,2-difluoroethoxy)phenyl]-3-[2-(3-isobutoxy-4-methoxyphenyl)oxazol-4-yl]-propan-1-one] | < 50
C=CCOc1cc(-c2nc(CCC(=O)c3ccccc3OCC(F)F)co2)ccc1OC [Example 281, 3-[2-(3-allyloxy-4-methoxyphenyl)oxazol-4-yl]-1-[2-(2,2-difluoroethoxy)phenyl]propan-1-one] | < 50
CCOc1ccc(-c2nc(CCC(=O)c3ncccc3C)co2)cc1OCC(F)F [Example 318, 3-{2-[3-(2,2-difluoroethoxy)-4-ethoxyphenyl]oxazol-4-yl}-1-(3-methylpyridin-2-yl)-propan-1-one] | < 50
C=CCCOc1cc(-c2nc(CNC(=O)c3ccccc3OCC)co2)ccc1OC(F)F [Example 354, N-[2-(3-but-3-enyloxy-4-difluoromethoxyphenyl)oxazol-4-ylmethyl]-2-ethoxybenzamide] | < 50
C=CCOc1cc(-c2nc(CCC(=O)c3ccccc3OCC=C)co2)ccc1OC [Example 166, 3-[2-(3-allyloxy-4-methoxyphenyl)oxazol-4-yl]-1-(2-allyloxyphenyl)propan-1-one] | < 50
CCCOc1cc(-c2nc(CNC(=O)c3ccccc3OCC)co2)ccc1OC(F)F [Example 350, N-[2-(4-difluoromethoxy-3-propoxyphenyl)oxazol-4-ylmethyl]-2-ethoxybenzamide] | < 50
COc1ccc(-c2nc(CCC(=O)c3ccccc3OC(C)C)co2)cc1OCC1CC1 [Example 208, 3-[2-(3-cyclopropylmethoxy-4-methoxyphenyl)oxazol-4-yl]-1-(2-isopropoxyphenyl)propan-1-one] | < 50
C=CCOc1cc(-c2nc(CNC(=O)c3ccccc3OCC)co2)ccc1OC(F)F [Example 351, N-[2-(3-allyloxy-4-difluoromethoxyphenyl)oxazol-4-ylmethyl]-2-ethoxybenzamide] | < 50
CCOc1ccccc1C(=O)CCc1coc(-c2ccc(OC)c(OCC3CCC3)c2)n1 [Example 116, 3-[2-(3-cyclobutylmethoxy-4-methoxyphenyl)oxazol-4-yl]-1-(2-ethoxyphenyl)propan-1-one] | < 50
CCOc1ccccc1C(=O)CCc1coc(-c2ccc(OC(F)F)c(OCC3CC3)c2)n1 [Example 336, 3-[2-(3-cyclopropylmethoxy-4-difluoromethoxyphenyl)oxazol-4-yl]-1-(2-ethoxyphenyl)propan-1-one] | < 50
C=CCCOc1cc(-c2nc(CCC(=O)c3ncccc3C)co2)ccc1OC(F)F [Example 331, 3-[2-(3-but-3-enyloxy-4-difluoromethoxyphenyl)-oxazol-4-yl]-1-(3-methylpyridin-2-yl)propan-1-one] | < 50
CCOc1ccccc1C(=O)NCc1coc(-c2ccc(OC(F)F)c(OCC(F)(F)F)c2)n1 [Example 383, N-{2-[4-difluoromethoxy-3-(2,2,2-trifluoroethoxy)phenyl]-oxazol-4-ylmethyl}-2-ethoxy benzamide] | < 50
COc1ccc(-c2nc(CCC(=O)c3ncccc3C)co2)cc1OCC(F)F [Example 309, 3-{2-[3-(2,2-difluoroethoxy)-4-methoxyphenyl]oxazol-4-yl}-1-(3-methylpyridin-2-yl)propan-1-one] | < 50
CCCOc1ccccc1C(=O)CCc1coc(-c2ccc(OC)c(OCC)c2)n1 [Example 195, 3-[2-(3-ethoxy-4-methoxyphenyl)oxazol-4-yl]-1-(2-propoxyphenyl)propan-1-one] | < 50
CCOc1cc(-c2nc(CCC(=O)c3ccccc3OCC(F)F)co2)ccc1OC [Example 280, 1-[2-(2,2-difluoroethoxy)phenyl]-3-[2-(3-ethoxy-4-methoxyphenyl)oxazol-4-yl]propan-1-one] | < 50
CCOc1cc(-c2nc(CNC(=O)c3ccccc3OCC)co2)ccc1OC(F)F [Example 349, N-[2-(4-difluoromethoxy-3-ethoxyphenyl)oxazol-4-ylmethyl]-2-ethoxybenzamide] | < 50
CCOc1cc(-c2nc(CCC(=O)c3ccccc3OCC)co2)ccc1OC(F)F [Example 334, 3-[2-(4-difluoromethoxy-3-ethoxyphenyl)oxazol-4-yl]-1-(2-ethoxyphenyl)propan-1-one] | < 50
